In brackets after ≈: the same amount, converted by molar mass. Where a name gives a salt, the structure may show the parent alone.
Assays:
Type in all cases: physicochemical
[1] = Exploration of solubility: 300 mg slurry in solvent (10 V) at 15~20° C.; conditions: for solubility: 15 °C, organic solvent or mixture, thermodynamic from solid; for solubility / Solubility (mg/mL): 300 mg slurry at 15~20° C.
Text: Exploration of Step 3: Amide Formation. Exploration of Product Solubility.
Exploration of the Solubility of 4 in Various Solvents.

[2] = Exploration of product stability in alkaline conditions; conditions: for Assay: 15~25° C.
Text: Exploration of Product Stability in Alkaline Conditions.

[3] = Exploration of solvent for filtration: 5a slurry in solvent; conditions: 500 mg slurry, HCl (EtOH) charged, 15˜25° C. for 20 h
Method: Exploration of Solvent for Filtration.
Experiments were performed 15˜25° C. for 20 h.

CN1CCN(C(=O)[C@H](CCC(=O)O)NC(=O)c2ccc(-n3ccnn3)cc2)CC1 [Compound 4, (4S)-4-[4-(1H-1,2,3-triazol-1-yl)benzoylamino]-5-(4-methylpiperazin-1-yl)-5-oxopentanoic Acid]
solubility ([1]; Acetonitrile (10 V)): 400 µg/mL (≈ 0.999 mM)
solubility ([1]; DCM (10 V)): 1000 µg/mL (≈ 2.5 mM)
solubility ([1]; EtOAc (10 V)): 400 µg/mL (≈ 0.999 mM)
solubility ([1]; EtOH (10 V)): 4000 µg/mL (≈ 9.99 mM)
solubility ([1]; IPA (10 V)): 900 µg/mL (≈ 2.25 mM)
solubility ([1]; IPAc (10 V)): 1000 µg/mL (≈ 2.5 mM)
solubility ([1]; MeOH (10 V)): 37000 µg/mL (≈ 92.4 mM)
solubility ([1]; THF (10 V)): 1200 µg/mL (≈ 3 mM)
stability in MeOH (conclusion of the solubility table) ([1]; MeOH): high stability
solubility (conclusion) ([1]; other tested solvents (than MeOH)): lower solubility

COC(=O)CC[C@H](NC(=O)c1ccc(-n2ccnn2)cc1)C(=O)N1CCN(C)CC1 [Compound 3, methyl (4S)-4-[4-(1H-1,2,3-triazol-1-yl)benzoylamino]-5-(4-methylpiperazin-1-yl)-5-oxopentanoate]
Assay ([2]; 1.0 g, pH 9-10 with 6M LiOH aqueous solution, 0 h): 1.0 g
Assay ([2]; 1.0 g, pH 9-10 with 6M LiOH aqueous solution, +10 h): 1.0 g
Assay ([2]; 1.0 g, pH 9-10 with 6M LiOH aqueous solution, +24 h (first)): 1.0 g
Assay ([2]; 1.0 g, pH 9-10 with 6M LiOH aqueous solution, +24 h (second)): 1.0 g
Assay ([2]; 1.0 g, pH 9-10 with 10 wt. % K2CO3 aqueous solution, 0 h): 1.0 g
Assay ([2]; 1.0 g, pH 9-10 with 10 wt. % K2CO3 aqueous solution, +10 h): 0.90 g
Assay ([2]; 1.0 g, pH 9-10 with 10 wt. % K2CO3 aqueous solution, +24 h (first)): 0.87 g
Assay ([2]; 1.0 g, pH 9-10 with 10 wt. % K2CO3 aqueous solution, +24 h (second)): 0.87 g
Assay ([2]; 1.0 g, pH 9-10 with 10 wt. % Na2CO3 aqueous solution, 0 h): 1.0 g
Assay ([2]; 1.0 g, pH 9-10 with 10 wt. % Na2CO3 aqueous solution, +10 h): 0.99 g
Assay ([2]; 1.0 g, pH 9-10 with 10 wt. % Na2CO3 aqueous solution, +24 h (first)): 0.97 g
Assay ([2]; 1.0 g, pH 9-10 with 10 wt. % Na2CO3 aqueous solution, +24 h (second)): 0.99 g
Assay ([2]; 1.0 g, pH 9-10 with 10 wt. % NaOH aqueous solution, 0 h): 1.0 g
Assay ([2]; 1.0 g, pH 9-10 with 10 wt. % NaOH aqueous solution, +10 h): 1.0 g
Assay ([2]; 1.0 g, pH 9-10 with 10 wt. % NaOH aqueous solution, +24 h (first)): 1.0 g
Assay ([2]; 1.0 g, pH 9-10 with 10 wt. % NaOH aqueous solution, +24 h (second)): 1.0 g
Assay ([2]; 1.1 g, pH 10-11 with NaOH aqueous solution (6N), 0 h): 0.7 g
Assay ([2]; 1.1 g, pH 10-11 with NaOH aqueous solution (6N), +7 h (after +20 h)): 0.4 g
Assay ([2]; 1.1 g, pH 10-11 with NaOH aqueous solution (6N), +20 h): 0.5 g
Assay ([2]; 1.1 g, pH 10-11 with NaOH aqueous solution (6N), +24 h (first, after +7 h)): 0.3 g
Assay ([2]; 1.1 g, pH 10-11 with NaOH aqueous solution (6N), +24 h (second)): 0.2 g
stability (conclusion) ([2]; in the presence of K2CO3): relatively instable
stability (conclusion) ([2]; pH>10 in basic aqueous solution): not stable
stability (conclusion) ([2]; weak basic aqueous solution, pH=9-10): relatively stable
solubility ([1]; Acetonitrile (10 V)): 29500 µg/mL (≈ 71.2 mM)
solubility ([1]; EtOAc (10 V)): 9000 µg/mL (≈ 21.7 mM)
solubility ([1]; EtOH (10 V)): 22500 µg/mL (≈ 54.3 mM)
solubility ([1]; IPA (10 V)): 14100 µg/mL (≈ 34 mM)
solubility ([1]; IPAc (10 V)): 4800 µg/mL (≈ 11.6 mM)
solubility ([1]; MTBE (10 V)): 600 µg/mL (≈ 1.45 mM)
solubility ([1]; THF (10 V)): 84200 µg/mL (≈ 203 mM)
Solubility (mg/mL) ([1]; DCM (10 V)): Dissolved completely
Solubility (mg/mL) ([1]; Heptane (10 V)): insoluble
Solubility (mg/mL) ([1]; MeOH (10 V)): Dissolved completely
solubility (conclusion) ([1]; in DCM, THF or MeOH): good solubility

CCCCCCCCCCCCSC(=O)CC[C@H](NC(=O)c1ccc(-n2ccnn2)cc1)C(=O)N1CCN(C)CC1 [Compound 5a, dodecyl (4S)-4-[4-(1H-1,2,3-triazol-1-yl)benzoylamino]-5-(4-methyl-piperazin-1-yl)-5-oxopentanethioate Hydrochloride Salt]
Result (solubility) ([3]; DMSO (20 V)): Soluble
Result (solubility) ([3]; NMP (20 V)): Soluble
